The source made the active and inactive calls. The rule behind the calls is not given here.
What follows are molecules tested against T1, Prolactin-releasing peptide receptor (Homo sapiens, UniProt P49683) (assay: Displacement of [3H]-PrRP from human GPR10 receptor expressed in HEK293 cell membranes incubated for 90 mins by liquid scintillation counting method).
T1 sequence (P49683 whole entry): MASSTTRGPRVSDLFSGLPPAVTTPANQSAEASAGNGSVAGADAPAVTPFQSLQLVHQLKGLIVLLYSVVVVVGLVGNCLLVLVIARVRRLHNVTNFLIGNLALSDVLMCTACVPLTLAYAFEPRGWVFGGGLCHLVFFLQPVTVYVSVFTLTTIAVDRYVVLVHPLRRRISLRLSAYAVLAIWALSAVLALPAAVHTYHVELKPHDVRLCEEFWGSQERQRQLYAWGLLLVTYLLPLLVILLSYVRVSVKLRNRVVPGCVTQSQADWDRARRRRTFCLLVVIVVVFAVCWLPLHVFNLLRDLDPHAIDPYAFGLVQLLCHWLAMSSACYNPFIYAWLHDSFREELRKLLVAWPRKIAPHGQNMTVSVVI
In the case of `COn1c(N[C@@H](C)c2ccc(C(F)(F)F)cc2)nc2c(c1=O)CN(C(=O)c1ccc(Cl)o1)CC2`, the Ki is reported as 48 nM. `C[C@H](Nc1nc2c(c(=O)n1N1CCOCC1)CN(C(=O)c1ccc(C#N)cc1F)CC2)c1ccc(C(F)(F)F)cc1` gave a Ki of 3 nM. `CCOn1c(N[C@@H](C)c2ccc(C(F)(F)F)cc2)nc2c(c1=O)CN(C(=O)c1cc3cccnc3s1)CC2` gave a Ki of 17 nM. `COc1ccc(C(=O)N2CCc3nc(N[C@@H](C)c4ccc(C(F)(F)F)cc4)n(OC)c(=O)c3C2)c(OC)n1` was tested, and the Ki was 7 nM. `CCOn1c(N[C@@H](C)c2ccc(C(F)(F)F)cc2)nc2c(c1=O)CN(C(=O)c1ccc(C#N)cc1)CC2` was tested, and the Ki was 11 nM. Molecule `C[C@H](Nc1nc2c(c(=O)n1N1CCCC1)CN(C(=O)c1ccc(C#N)cc1)CC2)c1ccc(C(F)(F)F)cc1` has a Ki of 10 nM. In the case of `CCOn1c(N[C@@H](C)c2ccc(C(F)(F)F)cc2)nc2c(c1=O)CN(C(=O)c1ccc(Cl)cc1)CC2`, the Ki is reported as 25 nM. Work on `CCOn1c(N[C@@H](C)c2ccc(C(F)(F)F)cc2)nc2c(c1=O)CN(C(=O)c1ccc(-c3cnco3)cc1)CC2` yielded a Ki of 20 nM. In the case of `COn1c(N[C@@H](C)c2ccc(C(F)(F)F)cc2)nc2c(c1=O)CN(C(=O)c1ccc(Cl)s1)CC2`, the Ki is reported as 15 nM. `COn1c(N[C@@H](C)c2ccc(C(F)(F)F)cc2)nc2c(c1=O)CN(C(=O)COc1ccc(C#N)cc1)CC2` was tested, and the Ki was 6 nM. `COn1c(N[C@@H](C)c2ccc(C(F)(F)F)cc2)nc2c(c1=O)CN(C(=O)c1cc3cccnc3s1)CC2` showed a Ki of 9 nM. `C[C@H](Nc1nc2c(c(=O)n1N1CCCC1)CN(C(=O)c1ccc(C#N)cc1F)CC2)c1ccc(C(F)(F)F)cc1` gave a Ki of 6 nM. In the case of `COc1ccc2oc(C(=O)N3CCc4nc(N[C@@H](C)c5ccc(C(F)(F)F)cc5)n(OC)c(=O)c4C3)cc2c1`, the Ki is reported as 14 nM. With `COn1c(N[C@@H](C)c2ccc(C(F)(F)F)cc2)nc2c(c1=O)CN(C(=O)c1cc3occc3n1C)CC2` the Ki was 10 nM.

Each molecule was assayed against T1, Prolactin-releasing peptide receptor (assay: Antagonist activity against human GPR10 receptor expressed in HEK293 cells assessed as inhibition of PrRP-induced intracellular calcium mobilization pre-incubated for 15 mins before PrRP addition by Fluo-8 dye based fluorescence imaging plate reader method).
Assay type: functional, cell-based
With `C[C@H](Nc1nc2c(c(=O)n1N1CCOCC1)CN(C(=O)c1ccc(C#N)cc1F)CC2)c1ccc(C(F)(F)F)cc1` the IC50 was 187 nM. With `CCOn1c(N[C@@H](C)c2ccc(C(F)(F)F)cc2)nc2c(c1=O)CN(C(=O)c1cc3cccnc3s1)CC2` the IC50 was 1680 nM. Molecule `COc1ccc(C(=O)N2CCc3nc(N[C@@H](C)c4ccc(C(F)(F)F)cc4)n(OC)c(=O)c3C2)c(OC)n1` has an IC50 of 228 nM. `CCOn1c(N[C@@H](C)c2ccc(C(F)(F)F)cc2)nc2c(c1=O)CN(C(=O)c1ccc(C#N)cc1)CC2` gave an IC50 of 156 nM. `C[C@H](Nc1nc2c(c(=O)n1N1CCCC1)CN(C(=O)c1ccc(C#N)cc1)CC2)c1ccc(C(F)(F)F)cc1` gave an IC50 of 648 nM. For `CCOn1c(N[C@@H](C)c2ccc(C(F)(F)F)cc2)nc2c(c1=O)CN(C(=O)c1ccc(Cl)cc1)CC2`, the IC50 was 3710 nM. Molecule `CCOn1c(N[C@@H](C)c2ccc(C(F)(F)F)cc2)nc2c(c1=O)CN(C(=O)c1ccc(-c3cnco3)cc1)CC2` has an IC50 of 158 nM. `COn1c(N[C@@H](C)c2ccc(C(F)(F)F)cc2)nc2c(c1=O)CN(C(=O)c1ccc(Cl)s1)CC2` gave an IC50 of 8790 nM. In the case of `C[C@H](Nc1nc2c(c(=O)n1N1CCCC1)CN(C(=O)c1ccc(C#N)cc1F)CC2)c1ccc(C(F)(F)F)cc1`, the IC50 is reported as 298 nM.

What follows are molecules tested on Rattus norvegicus (assay: Inhibition of restraint stress-induced defecation in Wistar rat at 5 mL/kg, po dosed 1 or 2 hrs before restraint stress).
Assay type: functional, organism-based
For `COn1c(N[C@@H](C)c2ccc(C(F)(F)F)cc2)nc2c(c1=O)CN(C(=O)c1ccc(Cl)o1)CC2`, the inhibition was “Active”. `C[C@H](Nc1nc2c(c(=O)n1N1CCOCC1)CN(C(=O)c1ccc(C#N)cc1F)CC2)c1ccc(C(F)(F)F)cc1` was tested, and the inhibition was “Active”. For `CCOn1c(N[C@@H](C)c2ccc(C(F)(F)F)cc2)nc2c(c1=O)CN(C(=O)c1cc3cccnc3s1)CC2`, the inhibition was “Active”. In the case of `COc1ccc(C(=O)N2CCc3nc(N[C@@H](C)c4ccc(C(F)(F)F)cc4)n(OC)c(=O)c3C2)c(OC)n1`, the inhibition is reported as “Active”. In the case of `CCOn1c(N[C@@H](C)c2ccc(C(F)(F)F)cc2)nc2c(c1=O)CN(C(=O)c1ccc(C#N)cc1)CC2`, the inhibition is reported as “Active”. With `C[C@H](Nc1nc2c(c(=O)n1N1CCCC1)CN(C(=O)c1ccc(C#N)cc1)CC2)c1ccc(C(F)(F)F)cc1` the inhibition was “Active”. `CCOn1c(N[C@@H](C)c2ccc(C(F)(F)F)cc2)nc2c(c1=O)CN(C(=O)c1ccc(Cl)cc1)CC2` was tested, and the inhibition was “Active”. With `CCOn1c(N[C@@H](C)c2ccc(C(F)(F)F)cc2)nc2c(c1=O)CN(C(=O)c1ccc(-c3cnco3)cc1)CC2` the inhibition was “Active”. With `COn1c(N[C@@H](C)c2ccc(C(F)(F)F)cc2)nc2c(c1=O)CN(C(=O)c1ccc(Cl)s1)CC2` the inhibition was “Active”. In the case of `COn1c(N[C@@H](C)c2ccc(C(F)(F)F)cc2)nc2c(c1=O)CN(C(=O)COc1ccc(C#N)cc1)CC2`, the inhibition is reported as “Active”. `C#CCn1c(N[C@@H](C)c2ccc(C(F)(F)F)cc2)nc2c(c1=O)CN(C(=O)c1c(F)cccc1F)CC2` was tested, and the inhibition was “Active”. For `COn1c(N[C@@H](C)c2ccc(C(F)(F)F)cc2)nc2c(c1=O)CN(C(=O)c1cc3cccnc3s1)CC2`, the inhibition was “Active”. For `C#CCCn1c(N[C@@H](C)c2ccc(C(F)(F)F)cc2)nc2c(c1=O)CN(C(=O)c1ccc(C(=O)N(C)C)cc1)CC2`, the inhibition was “Active”. In the case of `COn1c(N[C@@H](C)c2ccc(C(F)(F)F)cc2)nc2c(c1=O)CN(C(=O)c1ccc(C#N)cc1)CC2`, the inhibition is reported as “Active”. For `C[C@H](Nc1nc2c(c(=O)n1N1CCCC1)CN(C(=O)c1ccc(C#N)cc1F)CC2)c1ccc(C(F)(F)F)cc1`, the inhibition was “Active”. With `CC#CCn1c(N[C@@H](C)c2ccc(C(F)(F)F)cc2)nc2c(c1=O)CN(C(=O)c1ccc(-c3cnco3)cc1)CC2` the inhibition was “Active”. With `C[C@H](Nc1nc2c(c(=O)n1N(C)C)CN(C(=O)c1c(F)cc(F)cc1F)CC2)c1ccc(C(F)(F)F)cc1` the inhibition was “Active”. For `C[C@H](Nc1nc2c(c(=O)n1N(C)C)CN(C(=O)COc1ccc(Cl)cc1)CC2)c1ccc(Cl)cc1`, the inhibition was “Active”. For `C=Cc1ccc(C(=O)N2CCc3nc(N[C@@H](C)c4ccc(C(F)(F)F)cc4)n(OC)c(=O)c3C2)cc1`, the inhibition was “Active”. In the case of `CC#CCn1c(N[C@@H](C)c2ccc(C(F)(F)F)cc2)nc2c(c1=O)CN(C(=O)c1ccc(C#N)cc1)CC2`, the inhibition is reported as “Active”. For `COc1ccc2oc(C(=O)N3CCc4nc(N[C@@H](C)c5ccc(C(F)(F)F)cc5)n(OC)c(=O)c4C3)cc2c1`, the inhibition was “Active”. `COn1c(N[C@@H](C)c2ccc(C(F)(F)F)cc2)nc2c(c1=O)CN(C(=O)c1ccc(C#N)cc1F)CC2` was tested, and the inhibition was “Active”. In the case of `COn1c(N[C@@H](C)c2ccc(C(F)(F)F)cc2)nc2c(c1=O)CN(C(=O)c1cc3occc3n1C)CC2`, the inhibition is reported as “Active”.

Each molecule was assayed on Rattus norvegicus (assay: Inhibition of tail-pinch stress-induced feeding behavior in Wistar rat at 5 mL/kg, po dosed 1 or 2 hrs before tail-pinch stimulus).
Assay type: functional, organism-based
`COn1c(N[C@@H](C)c2ccc(C(F)(F)F)cc2)nc2c(c1=O)CN(C(=O)c1ccc(Cl)o1)CC2` was tested, and the inhibition was “Active”. In the case of `C[C@H](Nc1nc2c(c(=O)n1N1CCOCC1)CN(C(=O)c1ccc(C#N)cc1F)CC2)c1ccc(C(F)(F)F)cc1`, the inhibition is reported as “Active”. In the case of `CCOn1c(N[C@@H](C)c2ccc(C(F)(F)F)cc2)nc2c(c1=O)CN(C(=O)c1cc3cccnc3s1)CC2`, the inhibition is reported as “Active”. With `COc1ccc(C(=O)N2CCc3nc(N[C@@H](C)c4ccc(C(F)(F)F)cc4)n(OC)c(=O)c3C2)c(OC)n1` the inhibition was “Active”. In the case of `CCOn1c(N[C@@H](C)c2ccc(C(F)(F)F)cc2)nc2c(c1=O)CN(C(=O)c1ccc(C#N)cc1)CC2`, the inhibition is reported as “Active”. `C[C@H](Nc1nc2c(c(=O)n1N1CCCC1)CN(C(=O)c1ccc(C#N)cc1)CC2)c1ccc(C(F)(F)F)cc1` was tested, and the inhibition was “Active”. In the case of `CCOn1c(N[C@@H](C)c2ccc(C(F)(F)F)cc2)nc2c(c1=O)CN(C(=O)c1ccc(Cl)cc1)CC2`, the inhibition is reported as “Active”. With `CCOn1c(N[C@@H](C)c2ccc(C(F)(F)F)cc2)nc2c(c1=O)CN(C(=O)c1ccc(-c3cnco3)cc1)CC2` the inhibition was “Active”. In the case of `COn1c(N[C@@H](C)c2ccc(C(F)(F)F)cc2)nc2c(c1=O)CN(C(=O)c1ccc(Cl)s1)CC2`, the inhibition is reported as “Active”. With `COn1c(N[C@@H](C)c2ccc(C(F)(F)F)cc2)nc2c(c1=O)CN(C(=O)COc1ccc(C#N)cc1)CC2` the inhibition was “Active”. In the case of `C#CCn1c(N[C@@H](C)c2ccc(C(F)(F)F)cc2)nc2c(c1=O)CN(C(=O)c1c(F)cccc1F)CC2`, the inhibition is reported as “Active”. In the case of `COn1c(N[C@@H](C)c2ccc(C(F)(F)F)cc2)nc2c(c1=O)CN(C(=O)c1cc3cccnc3s1)CC2`, the inhibition is reported as “Active”. In the case of `C#CCCn1c(N[C@@H](C)c2ccc(C(F)(F)F)cc2)nc2c(c1=O)CN(C(=O)c1ccc(C(=O)N(C)C)cc1)CC2`, the inhibition is reported as “Active”. With `COn1c(N[C@@H](C)c2ccc(C(F)(F)F)cc2)nc2c(c1=O)CN(C(=O)c1ccc(C#N)cc1)CC2` the inhibition was “Active”. For `C[C@H](Nc1nc2c(c(=O)n1N1CCCC1)CN(C(=O)c1ccc(C#N)cc1F)CC2)c1ccc(C(F)(F)F)cc1`, the inhibition was “Active”. In the case of `CC#CCn1c(N[C@@H](C)c2ccc(C(F)(F)F)cc2)nc2c(c1=O)CN(C(=O)c1ccc(-c3cnco3)cc1)CC2`, the inhibition is reported as “Active”. With `C[C@H](Nc1nc2c(c(=O)n1N(C)C)CN(C(=O)c1c(F)cc(F)cc1F)CC2)c1ccc(C(F)(F)F)cc1` the inhibition was “Active”. With `C[C@H](Nc1nc2c(c(=O)n1N(C)C)CN(C(=O)COc1ccc(Cl)cc1)CC2)c1ccc(Cl)cc1` the inhibition was “Active”. With `C=Cc1ccc(C(=O)N2CCc3nc(N[C@@H](C)c4ccc(C(F)(F)F)cc4)n(OC)c(=O)c3C2)cc1` the inhibition was “Active”. In the case of `CC#CCn1c(N[C@@H](C)c2ccc(C(F)(F)F)cc2)nc2c(c1=O)CN(C(=O)c1ccc(C#N)cc1)CC2`, the inhibition is reported as “Active”. For `COc1ccc2oc(C(=O)N3CCc4nc(N[C@@H](C)c5ccc(C(F)(F)F)cc5)n(OC)c(=O)c4C3)cc2c1`, the inhibition was “Active”. With `COn1c(N[C@@H](C)c2ccc(C(F)(F)F)cc2)nc2c(c1=O)CN(C(=O)c1ccc(C#N)cc1F)CC2` the inhibition was “Active”. For `COn1c(N[C@@H](C)c2ccc(C(F)(F)F)cc2)nc2c(c1=O)CN(C(=O)c1cc3occc3n1C)CC2`, the inhibition was “Active”.

From ChEMBL document CHEMBL3727366, “Heterocyclic compounds for the treatment of stress-related conditions” (2013)
